Data: patent US7803792B2, “Quaternary ammonium compounds” (Asahi Kasei Pharma Corporation, priority 2002, dated 2010)

Target: T1, human IBAT (Homo sapiens, UniProt Q12908)
T1 construct: expressed in transfected cells; host or cells: Cos 7
T1 sequence (Q12908 1-348): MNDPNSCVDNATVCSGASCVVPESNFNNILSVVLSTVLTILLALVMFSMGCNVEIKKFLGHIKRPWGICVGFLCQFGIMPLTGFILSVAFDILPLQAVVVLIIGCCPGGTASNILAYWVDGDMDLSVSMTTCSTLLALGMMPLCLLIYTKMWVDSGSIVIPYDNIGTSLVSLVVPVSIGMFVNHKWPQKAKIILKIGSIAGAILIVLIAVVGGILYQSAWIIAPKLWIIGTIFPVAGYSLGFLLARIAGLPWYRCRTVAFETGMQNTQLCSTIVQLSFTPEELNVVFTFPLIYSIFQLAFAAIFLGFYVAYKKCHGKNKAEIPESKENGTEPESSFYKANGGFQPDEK
Assay: In vitro assay of temporarily expressed human IBAT transporter using Cos 7 cells (Test Example 8)
Type: cell-based
Settings: Cos 7 cells temporarily expressing human IBAT; [3H] taurocholate 8 μM, 37° C., 60 minutes
Experimental: In Vitro Assay of Compounds Which Inhibit Temporarily Expressed Human IBAT Transporter or Rat IBAT Transporter Using Cos 7 Cells
In this test example, the in vitro assay of the compounds which inhibit temporarily expressed human IBAT transporter or rat IBAT transporter using Cos cells was carried out according to the method described in Am. J. Physiol., 274, G157-169.
That is, […] Cos 7 were inoculated on a 24-well cell plate. One day later, 0.3 μg per well of cDNA of a human IBAT or a rat IBAT was transfected by using FuGENE6 (manufactured by ROCHE PHARMACEUTICAL CO., LTD.). For the assay, the cells cultured for one day after the transfection were used and the following procedure was followed. The cells were washed once with an assay buffer, Hank's buffer solution containing 25 mM glucose and with 10 mM HEPES (pH 7.4), and then the assay buffer was replaced by an assay buffer to which the test compound was added. After adding [^3H] taurocholate to a final concentration of 8 μM, the cells were incubated at 37° C. for 60 minutes. [^3H] taurocholate was allowed to be incorporated in Cos 7 cells through human IBAT or rat IBAT. The reaction was stopped by washing twice with a buffer prepared by adding 1 mM taurocholate to the assay buffer and lyzing the cells with 0.2M NaOH. Measurement of radioactivity was carried out by introducing the cell lyzate in 4 ml of liquid scintillation cocktail, stirring the mixture well, and then measuring the radioactivity by a scintillation counter.

Compound	IC50
CCCCC1(CCCC)CS(=O)(=O)c2ccc(N(C)C)cc2C(c2cccc(NC(=S)NCCCCC[N+]34CCC(CC3)CC4)c2)N1 (stereo not drawn) [Example 1433]	0.103 µM
CCCCCCCCCC[N+](C)(C)Cc1ccc(NC(=S)Nc2cccc(C3NC(CCCC)(CCCC)CS(=O)(=O)c4ccc(N(C)C)cc43)c2)cc1 (stereo not drawn) [Example 3414]	0.088 µM
CCCCC1(CCCC)CS(=O)(=O)c2ccc(N(C)C)cc2C(c2cccc(NC(=S)Nc3cccc(C[N+](CC)(CC)CC)c3)c2)N1 (stereo not drawn) [Example 4232]	0.099 µM
CCCCC1(CCCC)CS(=O)(=O)c2ccc(N(C)C)cc2C(c2cccc(NC(=S)Nc3cccc(C[N+]4(C)CCN(C)CC4)c3)c2)N1 (stereo not drawn) [Example 4479]	0.078 µM
CCCCC1(CCCC)CS(=O)(=O)c2ccc(N(C)C)cc2C(c2cccc(NC(=S)Nc3cccc(C[N+](C)(C)CCCC)c3)c2)N1 (stereo not drawn) [Example 4226]	0.099 µM
CCCCC1(CCCC)CS(=O)(=O)c2ccc(N(C)C)cc2C(c2cccc(NC(=S)NCCCCCC[N+](C)(C)Cc3ccccc3)c2)N1 (stereo not drawn) [Example 1555]	0.153 µM
CCCCC(CCCC)c1cc[n+](Cc2ccc(NC(=S)Nc3cccc(C4NC(CCCC)(CCCC)CS(=O)(=O)c5ccc(N(C)C)cc54)c3)cc2)cc1 (stereo not drawn) [Example 3716]	0.089 µM
C=CC[N+](C)(C)Cc1ccc(NC(=S)Nc2cccc(C3NC(CCCC)(CCCC)CS(=O)(=O)c4ccc(N(C)C)cc43)c2)cc1 (stereo not drawn) [Example 3429]	0.055 µM
C=CC[N+]1(Cc2cccc(NC(=S)Nc3cccc(C4NC(CCCC)(CCCC)CS(=O)(=O)c5ccc(N(C)C)cc54)c3)c2)CCCCC1 (stereo not drawn) [Example 4408]	0.073 µM
CCCCC1(CCCC)CS(=O)(=O)c2ccc(N(C)C)cc2C(c2cccc(NC(=S)Nc3ccc(C[N+]4(C)CCCCC4)cc3)c2)N1 (stereo not drawn) [Example 3587]	0.07 µM
CCCCC1(CCCC)CS(=O)(=O)c2ccc(N(C)C)cc2C(c2cccc(NC(=S)Nc3ccc(C[N+]45CCC(CC4)C(=O)C5)cc3)c2)N1 (stereo not drawn) [Example 3698]	0.072 µM
CCCCCCOC(=O)c1ccc[n+](Cc2ccc(NC(=S)Nc3cccc(C4NC(CCCC)(CCCC)CS(=O)(=O)c5ccc(N(C)C)cc54)c3)cc2)c1 (stereo not drawn) [Example 3750]	0.075 µM
CCCCC1(CCCC)CS(=O)(=O)c2ccc(N(C)C)cc2C(c2cccc(NC(=S)Nc3cccc(C[N+]4(CC)CCCCC4)c3)c2)N1 (stereo not drawn) [Example 4405]	0.062 µM
CCCCC1(CCCC)CS(=O)(=O)c2ccc(N(C)C)cc2C(c2cccc(NC(=S)Nc3ccc(C[n+]4cccc5c4CCCC5)cc3)c2)N1 (stereo not drawn) [Example 4221]	0.043 µM
CCC#CC[N+](C)(C)Cc1ccc(NC(=S)Nc2cccc(C3NC(CCCC)(CCCC)CS(=O)(=O)c4ccc(N(C)C)cc43)c2)cc1 (stereo not drawn) [Example 3434]	0.071 µM
CCCCCCCCC[N+](C)(C)Cc1ccc(NC(=S)Nc2cccc(C3NC(CCCC)(CCCC)CS(=O)(=O)c4ccc(N(C)C)cc43)c2)cc1 (stereo not drawn) [Example 3413]	0.073 µM
CCCCC1(CCCC)CS(=O)(=O)c2ccc(N(C)C)cc2C(c2cccc(NC(=S)Nc3ccc(C[N+]4(Cc5ccccc5)CCCCC4)cc3)c2)N1 (stereo not drawn) [Example 3593]	0.07 µM
CCCCC1(CCCC)CS(=O)(=O)c2ccc(N(C)C)cc2C(c2cccc(NC(=S)Nc3cccc(C[N+]45CCN(CC4)CC5)c3)c2)N1 (stereo not drawn) [Example 4522]	0.097 µM
CCCCC1(CCCC)CS(=O)(=O)c2ccc(N(C)C)cc2C(c2cccc(NC(=S)Nc3ccc(C[N+](C)(C)Cc4cccs4)cc3)c2)N1 (stereo not drawn) [Example 3449]	0.055 µM
CCCCC1(CCCC)CS(=O)(=O)c2ccc(N(C)C)cc2C(c2cccc(NC(=S)Nc3ccc(C[N+]4(Cc5ccccc5)CCCC(O)C4)cc3)c2)N1 (stereo not drawn) [Example 3604]	0.045 µM
C#CC[N+](C)(C)Cc1ccc(NC(=S)Nc2cccc(C3NC(CCCC)(CCCC)CS(=O)(=O)c4ccc(N(C)C)cc43)c2)cc1 (stereo not drawn) [Example 3433]	0.055 µM

Next, values leading:

IC50	Compound
0.078 µM	CCCCC1(CCCC)CS(=O)(=O)c2ccc(N(C)C)cc2C(c2cccc(NC(=S)Nc3cccc(C[n+]4cccc5ccccc54)c3)c2)N1 (stereo not drawn) [Example 4585]
0.07 µM	CCCCC1(CCCC)CS(=O)(=O)c2ccc(N(C)C)cc2C(c2cccc(NC(=S)Nc3ccc(C[n+]4ccccc4)cc3)c2)N1 (stereo not drawn) [Example 3708]
0.072 µM	C=Cc1ccc(C[N+](C)(C)Cc2cccc(NC(=S)Nc3cccc(C4NC(CCCC)(CCCC)CS(=O)(=O)c5ccc(N(C)C)cc54)c3)c2)cc1 (stereo not drawn) [Example 4263]
0.052 µM	CCCCC1(CCCC)CS(=O)(=O)c2ccc(N(C)C)cc2C(c2cccc(NC(=S)Nc3ccc(C[n+]4ccccc4C)cc3)c2)N1 (stereo not drawn) [Example 5407]
0.08 µM	CCCCC1(CCCC)CS(=O)(=O)c2ccc(N(C)C)cc2C(c2cccc(NC(=S)Nc3ccc(C[n+]4ccc(CCc5ccncc5)cc4)cc3)c2)N1 (stereo not drawn) [Example 3764]
0.091 µM	CCCCC1(CCCC)CS(=O)(=O)c2ccc(N(C)C)cc2C(c2cccc(NC(=S)Nc3cccc(C[n+]4ccc(CCC)cc4)c3)c2)N1 (stereo not drawn) [Example 4528]
0.072 µM	CCCCC1(CCCC)CS(=O)(=O)c2ccc(N(C)C)cc2C(c2cccc(NC(=S)Nc3ccc(C[n+]4cccc5ccccc54)cc3)c2)N1 (stereo not drawn) [Example 3768]
0.082 µM	CCCCC1(CCCC)CS(=O)(=O)c2ccc(N(C)C)cc2C(c2cccc(NC(=S)Nc3cccc(C[n+]4cccc(-c5cccs5)c4)c3)c2)N1 (stereo not drawn) [Example 4543]
0.057 µM	CCCCC1(CCCC)CS(=O)(=O)c2ccc(N(C)C)cc2C(c2cccc(NC(=S)Nc3ccc(C[n+]4ccc(CCCO)cc4)cc3)c2)N1 (stereo not drawn) [Example 3733]
0.063 µM	CCCCC1(CCCC)CS(=O)(=O)c2ccc(N(C)C)cc2C(c2cccc(NC(=S)Nc3ccc(C[n+]4ccc(CCC)cc4)cc3)c2)N1 (stereo not drawn) [Example 3711]
0.025 µM	CCCCC1(CCCC)CS(=O)(=O)c2ccc(N(C)C)cc2C(c2cccc(NC(=S)Nc3ccc(C[n+]4ccc5c(c4)CCCC5)cc3)c2)N1 (stereo not drawn) [Example 4223]
0.039 µM	CCCCC1(CCCC)CS(=O)(=O)c2ccc(N(C)C)cc2C(c2cccc(NC(=S)Nc3ccc(C[n+]4cccc(CC)c4)cc3)c2)N1 (stereo not drawn) [Example 3722]
0.089 µM	CCCCC1(CCCC)CS(=O)(=O)c2ccc(N(C)C)cc2C(c2cccc(NC(=S)Nc3ccc(C[n+]4cccc5cc(C(C)C)ccc54)cc3)c2)N1 (stereo not drawn) [Example 3772]
0.05 µM	CCCCC1(CCCC)CS(=O)(=O)c2ccc(N(C)C)cc2C(c2cccc(NC(=S)Nc3ccc(C[n+]4ccc(C(C)=O)cc4)cc3)c2)N1 (stereo not drawn) [Example 3736]
0.076 µM	CCCCC1(CCCC)CS(=O)(=O)c2ccc(N(C)C)cc2C(c2cccc(NC(=S)Nc3cccc(C[n+]4ccc(OC)cc4)c3)c2)N1 (stereo not drawn) [Example 4551]
0.064 µM	CCCCC1(CCCC)CS(=O)(=O)c2ccc(N(C)C)cc2C(c2cccc(NC(=S)Nc3cccc(C[n+]4cccc(CC)c4)c3)c2)N1 (stereo not drawn) [Example 4539]
0.046 µM	CCCCC1(CCCC)CS(=O)(=O)c2ccc(N(C)C)cc2C(c2cccc(NC(=S)Nc3cccc(C[n+]4cccc5cc(C(C)C)ccc54)c3)c2)N1 (stereo not drawn) [Example 4589]
0.072 µM	C=CC[N+](C)(C)Cc1cccc(NC(=S)Nc2cccc(C3NC(CCCC)(CCCC)CS(=O)(=O)c4ccc(N(C)C)cc43)c2)c1 (stereo not drawn) [Example 4246]
0.081 µM	CCCCC1(CCCC)CS(=O)(=O)c2ccc(N(C)C)cc2C(c2cccc(NC(=S)Nc3ccc(C[n+]4cccc(C(=O)c5ccccc5)c4)cc3)c2)N1 (stereo not drawn) [Example 3748]
0.074 µM	CCCCC1(CCCC)CS(=O)(=O)c2ccc(N(C)C)cc2C(c2cccc(NC(=S)Nc3cccc(C[N+](C)(C)Cc4cccc(OC)c4)c3)c2)N1 (stereo not drawn) [Example 4371]
0.076 µM	CCCCC1(CCCC)CS(=O)(=O)c2ccc(N(C)C)cc2C(c2cccc(NC(=S)Nc3cccc(C[n+]4ccc(-c5ccccc5)cc4)c3)c2)N1 (stereo not drawn) [Example 4534]
0.026 µM	CCCCC1(CCCC)CS(=O)(=O)c2ccc(N(C)C)cc2C(c2cccc(NC(=S)Nc3ccc(C[n+]4cc(O)cc(Cl)c4)cc3)c2)N1 (stereo not drawn) [Example 5417]
0.066 µM	CCCCC1(CCCC)CS(=O)(=O)c2ccc(N(C)C)cc2C(c2cccc(NC(=S)Nc3ccc(C[n+]4ccc(C)c(C)c4)cc3)c2)N1 (stereo not drawn) [Example 3727]
0.084 µM	CCCCC1(CCCC)CS(=O)(=O)c2ccc(N(C)C)cc2C(c2cccc(NC(=S)Nc3ccc(C[n+]4cc(C)cc(-c5ccccc5)c4)cc3)c2)N1 (stereo not drawn) [Example 3730]
0.069 µM	CCCCC1(CCCC)CS(=O)(=O)c2ccc(N(C)C)cc2C(c2cccc(NC(=S)Nc3ccc(C[n+]4cccc(-c5ccccc5)c4)cc3)c2)N1 (stereo not drawn) [Example 3724]
0.092 µM	CCCCC1(CCCC)CS(=O)(=O)c2ccc(N(C)C)cc2C(c2cccc(NC(=S)Nc3cccc(C[N+]45CCC(c6ccccc6)(CC4)CC5)c3)c2)N1 (stereo not drawn) [Example 4513]
0.077 µM	CCCCC1(CCCC)CS(=O)(=O)c2ccc(N(C)C)cc2C(c2cccc(NC(=S)Nc3ccc(C[n+]4cccc(F)c4)cc3)c2)N1 (stereo not drawn) [Example 5416]
